# Measured values from US4470840A, “1-Triacontanol plant growth stimulator formulations” (Biochemical Research Corporation, priority 1981, dated 1984).
# Tests used:
# [1] = tested on: Hybrid Sweet Corn Seedlings (cv. Silver Queen); test: Greenhouse trial: dry weight and water uptake of seedlings after foliar spraying; type: in vivo
# Method: (§1) In general, greenhouse trials were conducted as follows: eight to twelve seeds were sown per pot in Peat-Lite® Mix and received an average of 100 ml of water per day. After plants had the third true leaf (average), the various formulations were applied to the leaves as a fine mist at air temperatures listed in Table 1. Temperatures above 20° C., preferably 25°-30° C., are preferred.
# (§2) The 1-triacontanol formulation most generally used consisted of a concentrate containing 5 mg of 1-triacontanol dissolved in 1 liter of acetone, with 20 ml of the concentrate being further dissolved to 1 liter with water having a pH between 8 and 10, with over a pH of 11 also being effective. The pH was adjusted with aqueous NaOH and the concentrate added just prior to spraying.
# (§3) When other plant growth substances were added to the formulations, these were added either to the concentrate in the polar organic solvent or alternatively in the aqueous solution, depending on the solubility of the plant growth substance. All metal salts were added to the water used to spray the 1-triacontanol formulations. After spraying, preferably about four to nine days or more, plants were harvested with roots, and fresh weights were obtained. Plants were then dried in an oven, preferably at a temperature below 100° C., until constant weight was obtained, and dry weight values were obtained for each plot. Subtraction of the dry weights from the fresh weights gave the water uptake weights (water content) of each plot. The weights of the above mentioned seedlings were compared to the control weights to obtain the percent increases.
# (§4) It is particularly advantageous to arrange each of the potted plants in size range categories corresponding to the number of replications used. For example, if five replications are employed, plants are divided into five size categories, normally measured by the height of the plants. Treatments are then assigned randomly within each block (size category). This removes the variation due to plant size for statistical purposes, as is well practiced in the art. The resulting data is analyzed using any appropriate means, which may include the least significant difference method (L.S.D. method), Duncan's multiple range test, as used here (Biometrics, 11: 1 (1955)), or other means.
# [2] = tested on: Field Corn Seedlings (cv. Trojan TXS 94, Pioneer 3780, WF9 X Bear 38); test: as above; type: in vivo; conditions: cv. Trojan TXS 94, no metal salt, 1-triacontanol 0.1 mg/liter
# Method: as §1, §2, §3, §4
# [3] = tested on: Hybrid Sweet Corn Seedlings (cv. Silver Queen); test: Lengths of stems and total plant length of seedlings sprayed Day 7; type: in vivo; conditions: T = 1-triacontanol 0.1 mg/liter
# [4] = tested on: Pea Seedlings (cv. Dark Skin); test: Greenhouse trial: dry weight of seedlings; type: in vivo, peas; conditions: 1-triacontanol 0.1 mg/liter; for Dry wt.: sum of four plants
# Method: as §1, §2, §3, §4
# [5] = tested on: Tomatoes (cv. Ponderosa Red Beefsteak, Red Cherry, Rutgers VF); test: Field trial: marketable yield and seed size; type: in vivo; conditions: for Percent increases (size of seeds) / Wt. of treated seed: 100 seeds; for Percent increases (size of seeds) / Wt. of treated seed / Fresh wt. (marketable yield) / Percent increases (marketable yield): 1-triacontanol 0.25 mg/liter; for Wt. of treated seed: control seed 0.32; for Fresh wt. (marketable yield) / Percent increases (marketable yield): pH 9 to 10
# Method: Field trials were conducted in Northern Virginia on plots that were replicated at least five items. Plots consisted of single rows of plants in blocks of three or more plots, with treatments being assigned randomly within each block.
# Plants were fertilized with the fertilizers described in Table 1, and sprayed at air temperatures listed in the same Table. Spraying was usually avoided under windy conditions to avoid drift. In the examples set forth herein, data were treated in a similar manner to those found in the greenhouse trials, with analysis of variance performed for each trial, and the use of a suitable statistical method for the analysis of results, preferably Duncan's multiple range test.
# [6] = tested on: Watermelon Seedlings (cv. Dixie Queen); test: Greenhouse trial: dry weight of seedlings; type: in vivo; conditions: 1-triacontanol 0.1 mg/liter, pH 9.8; for Dry wt.: per 4 plants
# Method: as §1, §2, §3, §4
# [7] = tested on: Soybean Seedlings (cv. Prize); test: Greenhouse trial: dry weight of seedlings; type: in vivo; conditions: for Dry wt.: per four plants per plot
# Method: as §1, §2, §3, §4
# [8] = tested on: Winter Wheat Seedlings (cv. Augusta); test: Greenhouse trial: dry weight of seedlings; type: in vivo; conditions: triacontanol 0.1 mg/l, pH 9.0
# Method: as §1, §2, §3, §4
# [9] = 14-day old seedlings, 1-triacontanol 0.1 mg/liter alone, no plant growth substance (Formulation 2)
# [10] = 14-day old seedlings, metal ion 9 mM (none in the last line) with 1-triacontanol 0.1 mg/liter, pH 8 to 10, Formulation 4
# [11] = Formulation 4, 1-triacontanol 0.5 mg/liter, 10 mM CaCl2, pH 8.1, test seed first generation (sprayed) vs control first (not sprayed)
# [12] = Formulation 4, 1-triacontanol 0.5 mg/liter, 10 mM CaCl2, pH 8.1, test seed second generation (first and second sprayed) vs control second (first and second not sprayed)
# [13] = Formulation 4, 1-triacontanol 0.5 mg/liter, 10 mM CaCl2, pH 8.1, test seed second generation (first and second sprayed) vs control second (second was sprayed only)
# [14] = Formulation 4, 1-triacontanol 0.5 mg/liter, 10 mM CaCl2, pH 8.1, test seed second generation (first was sprayed only) vs control second (first and second not sprayed)
# [15] = CaCl2 50.0 mM, IAA 10 μM (Formulation 14)
# [16] = cv. Ponderosa Red Beefsteak, CaCl2 5 mM, no IAA
# [17] = cv. Ponderosa Red Beefsteak, CaCl2 50 mM, IAA 0.01 mM
# [18] = cv. Ponderosa Red Beefsteak, CaCl2 5 mM, no IAA (Formulation 12)
# [19] = cv. Ponderosa Red Beefsteak, CaCl2 50 mM, IAA 10 μM (Formulation 16)
# [20] = cv. Ponderosa Red Beefsteak, previous year
# [21] = cv. Red Cherry, CaCl2 5 mM, no IAA (Formulation 12)
# [22] = cv. Red Cherry, CaCl2 50 mM, IAA 10 μM (Formulation 16)
# [23] = cv. Rutgers VF, CaCl2 5 mM, no IAA (Formulation 12)
# [24] = cv. Rutgers VF, CaCl2 50 mM, IAA 10 μM (Formulation 16)
# [25] = CaCl2 5 mM, 1-triacontanol 0.1 mg/liter
# [26] = CaCl2 10 mM, 1-triacontanol 0.1 mg/liter
# [27] = CaCl2 20 mM, 1-triacontanol 0.1 mg/liter
# [28] = CaCl2 50 mM, NAA 1.5 μM (Formulation 7)
compound,measurement,setting,value
"CCCCCCCCCCCCCCCCCCCCCCCCCCCCCCO [1-Triacontanol, 1-triacontanol]",Increase in dry weight,"[1]; 1-triacontanol 0.1 mg/liter, Formulation 4, additive 9 mM (none in the last line)",+21%
same,"Increases, H2O uptake",[1]; [9],+16%
same,"Increases, dry wt.",[1]; [9],+20%
same,% increase (dry weight),[1]; [10],+21%
same,% increase (water uptake),[1]; [10],+16%
same,Dry weight,"[1]; 14-day old seedlings, metal ion 9 mM (none in the last line) with 1-triacontanol 0.1 mg/liter, pH 8 to 10, Formulation 4, control 0.86 g",1.04 g
same,Water uptake,"[1]; 14-day old seedlings, metal ion 9 mM (none in the last line) with 1-triacontanol 0.1 mg/liter, pH 8 to 10, Formulation 4, control 8.7 g",10.1 g
same,"Increases, H2O uptake","[1]; 14-day old seedlings, no metal salt, 1-triacontanol 0.1 mg/liter, Formulation 1 as printed",+16%
same,"Increases, H2O uptake",[1]; [11],+41%
same,"Increases, dry wt.",[1]; [11],+44%
same,"Increases, H2O uptake",[1]; [12],+78%
same,"Increases, dry wt.",[1]; [12],+80%
same,"Increases, H2O uptake",[1]; [13],+46%
same,"Increases, dry wt.",[1]; [13],+41%
same,"Increases, H2O uptake",[1]; [14],+40%
same,"Increases, dry wt.",[1]; [14],+44%
same,"Increases, dry wt.","[1]; foliar, 0.1 ug/mL",+20%
same,Dry wt. increase,[2]; Formulation 4,-3%
same,Dry wt. increase,[2]; Formulation 11,-8%
same,"Increase in length ""a""",[3],0%
same,"Increase in length ""b""",[3],+15%
same,"Length ""a"" (stem to the first leaf)",[3]; control 11.5 cm,11.5 cm
same,"Length ""b"" (total plant length)",[3]; control 25.0 cm,28.8 cm
same,Percent increases (dry weight),"[4]; CaCl2 0.0 mM, no IAA",-5%
same,Dry wt.,"[4]; CaCl2 0.0 mM, no IAA, control 0.83",0.79 gm
same,Percent increases (dry weight),"[4]; CaCl2 1.0 mM, no IAA",+1%
same,Dry wt.,"[4]; CaCl2 1.0 mM, no IAA",0.84 gm
same,Percent increases (dry weight),"[4]; CaCl2 3.0 mM, no IAA",-7%
same,Dry wt.,"[4]; CaCl2 3.0 mM, no IAA",0.77 gm
same,Percent increases (dry weight),"[4]; CaCl2 5.0 mM, no IAA",+7%
same,Dry wt.,"[4]; CaCl2 5.0 mM, no IAA",0.89 gm
same,Percent increases (dry weight),"[4]; CaCl2 10.0 mM, no IAA",+18%
same,Dry wt.,"[4]; CaCl2 10.0 mM, no IAA",0.98 gm
same,Percent increases (dry weight),"[4]; CaCl2 15.0 mM, no IAA",+33%
same,Dry wt.,"[4]; CaCl2 15.0 mM, no IAA",1.10 gm
same,Percent increases (dry weight),[4]; [15],+46%
same,Dry wt.,[4]; [15],1.21 gm
same,Percent increases (size of seeds),[5]; [16],+25%
same,Wt. of treated seed,[5]; [16],0.40 g
same,Percent increases (size of seeds),[5]; [17],+6%
same,Wt. of treated seed,[5]; [17],0.34 g
same,Fresh wt. (marketable yield),[5]; [18],15353 g
same,Percent increases (marketable yield),[5]; [18],+38%
same,Fresh wt. (marketable yield),[5]; [19],22283 g
same,Percent increases (marketable yield),[5]; [19],+45%
same,Early yield over controls,[5]; [20],72%
same,Late yield over controls,[5]; [20],67%
same,Fresh wt. (marketable yield),[5]; [21],5679 g
same,Percent increases (marketable yield),[5]; [21],+26%
same,Fresh wt. (marketable yield),[5]; [22],6225 g
same,Percent increases (marketable yield),[5]; [22],+38%
same,Fresh wt. (marketable yield),[5]; [23],14079 g
same,Percent increases (marketable yield),[5]; [23],+7%
same,Fresh wt. (marketable yield),[5]; [24],20880 g
same,Percent increases (marketable yield),[5]; [24],+59%
same,Percent increases (dry weight),"[6]; CaCl2 5 mM, no IAA",+38%
same,Dry wt.,"[6]; CaCl2 5 mM, no IAA, sprayed Day 36, harvested Day 45, control 0.61 g",0.84 gm
same,Percent increases (dry weight),"[6]; CaCl2 10 mM, no IAA",+48%
same,Dry wt.,"[6]; CaCl2 10 mM, no IAA",0.90 gm
same,Percent increases (dry weight),"[6]; CaCl2 50 mM, IAA 10 μM",+65%
same,Dry wt.,"[6]; CaCl2 50 mM, IAA 10 μM",1.01 gm
same,Dry wt.,"[7]; CaCl2 3 mM as printed, 1-triacontanol 0.1 mg/liter",1.96 g
same,Increase (dry weight),[7]; [25],+17%
same,Dry wt.,[7]; [25],2.30 g
same,Increase (dry weight),[7]; [26],+37%
same,Dry wt.,[7]; [26],2.68 g
same,Increase (dry weight),[7]; [27],+35%
same,Dry wt.,[7]; [27],2.65 g
same,Increase (dry weight),"[7]; line printed as ""Control"" but with an increase",+7%
same,Increase (dry weight),"[8]; CaCl2 0 mM, no NAA",0%
same,Dry wt.,"[8]; CaCl2 0 mM, no NAA, average sum of four plants per plot, control 0.513 g",0.520 g
same,Dry wt.,"[8]; CaCl2 5 mM, no NAA",0.502 g
same,Increase (dry weight),"[8]; CaCl2 5 mM, no NAA",-2%
same,Dry wt.,"[8]; CaCl2 10 mM, no NAA",0.682 g
same,Increase (dry weight),"[8]; CaCl2 10 mM, no NAA",+33%
same,Dry wt.,"[8]; CaCl2 15 mM, no NAA",0.616 g
same,Increase (dry weight),"[8]; CaCl2 15 mM, no NAA",+20%
same,Dry wt.,"[8]; CaCl2 20 mM, no NAA",0.682 g
same,Increase (dry weight),"[8]; CaCl2 20 mM, no NAA",+33%
same,Dry wt.,"[8]; CaCl2 25 mM, no NAA",0.708 g
same,Increase (dry weight),"[8]; CaCl2 25 mM, no NAA",+38%
same,Dry wt.,[8]; [28],0.872 g
same,Increase (dry weight),[8]; [28],+70%
